One assay has as its system pERK in MKN1 cells. The assay is described as follows: pERK inhibition, In-Cell Western (LI-COR Odyssey), MKN1 cells. It is filed as cell-based. The settings on record: Homo sapiens. The method in brief:
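MKN1 cells were exposed for about 0.5–1 h at 37 °C to nine 3-fold dilutions starting at 10 µM. Cells were then fixed in formaldehyde, permeabilised with methanol, and immunostained for pERK and GAPDH with near-infrared secondary antibodies. GAPDH-normalised pERK signal relative to vehicle gave % inhibition, from which IC50 was fitted.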

Assay [1] concerns the target T1, recombinant human SOS1 polypeptide (amino acids 560-1049) (Homo sapiens, UniProt Q07889).
T1 construct: corresponding to amino acids 560-1049, expressed in E. Coli; made in house; host or cells: E. coli
T1 sequence (Q07889 560-1049): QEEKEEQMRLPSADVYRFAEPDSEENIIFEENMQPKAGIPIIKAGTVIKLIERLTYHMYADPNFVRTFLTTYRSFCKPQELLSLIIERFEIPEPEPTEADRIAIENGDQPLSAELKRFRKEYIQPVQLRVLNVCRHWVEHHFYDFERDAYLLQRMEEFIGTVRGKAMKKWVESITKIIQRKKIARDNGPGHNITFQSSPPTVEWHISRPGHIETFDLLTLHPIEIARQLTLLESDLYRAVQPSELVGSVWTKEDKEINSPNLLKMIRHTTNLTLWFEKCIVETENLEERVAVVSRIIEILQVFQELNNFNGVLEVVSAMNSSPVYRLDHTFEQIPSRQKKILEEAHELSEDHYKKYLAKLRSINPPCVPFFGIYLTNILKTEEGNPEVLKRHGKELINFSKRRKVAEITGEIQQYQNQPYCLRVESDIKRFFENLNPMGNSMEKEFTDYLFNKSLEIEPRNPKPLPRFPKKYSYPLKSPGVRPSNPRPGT
The assay is described as follows: HTRF displacement assay: inhibition of labeled tracer binding to SOS1. The settings on record: Table A1, Morrison equation for competitive binding.
Method: The ability of a compound of Formula (I) to bind to SOS1 was measured using a HTRF displacement assay. […] After a 1-hour incubation at room temperature, the HTRF signal was measured using Clairostar plate reader (BMG Labtech) according to the manufacturer's instructions. Excitation filter EX-TR was used, and emission 1 was detected at 650-610 nm and emission 2 detected at 620-610 nm. The HTRF ratio was calculated using the formula: [emission 1/emission 2]*10000.
Background signals were calculated from well with a 10 μM inhibitor, known to inhibit 100% at that concentration. The background subtracted signals were converted to % binding relative to DMSO controls. Data were analyzed using XLFIT software (IDBS) using a Morrison equation for competitive binding and Ki's were generated compound of Formula (I).

Setting [2] is: MKN-1, Table B1, MKN1 or H358 cells (table does not say which), 0.5-1 hour incubation, read-out: IC50 (nM), pERK inhibition.
Setting [3] is: MKN-1, read-out: IC50 (nM), pERK inhibition.

SMILES strings stand for the structures. Where a name gives a salt, the structure may show the parent alone. Read-outs that look alike come from different tables or passages of the source.

One may read the IC50 as the concentration that gives 50% inhibition. Broadly, the Ki is the dissociation constant of the complex between target and ligand, obtained from inhibition or displacement. For the molecule `COC1(c2cc3c(N[C@H](C)c4cccc(C#N)c4C)nnc(C)c3cc2F)CCN(C(C)=O)CC1` [Example P-159, (R)-3-(1-((7-(1-acetyl-4-methoxypiperidin-4-yl)-6-fluoro-4-methylphthalazin-1-yl)amino)ethyl)-2-methylbenzonitrile], the IC50 with pERK in MKN1 cells (setting [2]) came to 100 nM. Moreover, the Ki in assay [1] amounted to 2.2 nM.

As to `COC1(c2cc3c(N[C@H](C)c4cccc(C#N)c4C)nnc(C)c3cc2F)CCOCC1` [Example P-165, (R)-3-(1-((6-fluoro-7-(4-methoxytetrahydro-2H-pyran-4-yl)-4-methylphthalazin-1-yl)amino)ethyl)-2-methylbenzonitrile], in the assay on pERK in MKN1 cells (setting [2]), the IC50 stood at 352 nM. Also, the Ki in assay [1] turned out to be 4.66 nM.

For the molecule `Cc1nnc(N[C@H](C)c2cccc(C(C)(F)F)c2F)c2cc(N3CCOCC3)ncc12` [Example P-169, (R)-N-(1-(3-(1,1-difluoroethyl)-2-fluorophenyl)ethyl)-4-methyl-7-morpholinopyrido[3,4-d]pyridazin-1-amine], the 50% inhibitory concentration (IC50) in the assay with pERK in MKN1 cells (setting [2]) was 71.4 nM. Further, the Ki in assay [1] came out at 0.827 nM.

Take `Cc1nnc(N[C@H](C)c2cccc(C(C)(F)F)c2F)c2cc(N(C)C)ncc12` [Example P-170, (R)-N1-(1-(3-(1,1-difluoroethyl)-2-fluorophenyl)ethyl)-N7,N7,4-trimethylpyrido[3,4-d]pyridazine-1,7-diamine]: the half-inhibitory concentration (IC50) in the assay on pERK in MKN1 cells (setting [2]) stood at 192 nM. In addition, the Ki in assay [1] was 2.18 nM.

`Cc1nnc(N[C@H](C)c2cccc(C(C)(F)F)c2F)c2cc(N3CCN4CCOC[C@@H]4C3)ncc12` [Example P-171, N-((R)-1-(3-(1,1-difluoroethyl)-2-fluorophenyl)ethyl)-7-((S)-hexahydropyrazino[2,1-c][1,4]oxazin-8(1H)-yl)-4-methylpyrido[3,4-d]pyridazin-1-amine]: the IC50 in the assay with pERK in MKN1 cells (setting [2]) amounted to 28.5 nM. Besides, the inhibition constant Ki in assay [1] was 0.425 nM.

For the molecule `Cc1c(C#N)cccc1[C@@H](C)Nc1nnc(C)c2cc(F)c(-c3ccc(=O)n(C)c3)cc12` [Example P-172, (R)-3-(1-((6-fluoro-4-methyl-7-(1-methyl-6-oxo-1,6-dihydropyridin-3-yl)phthalazin-1-yl)amino)ethyl)-2-methylbenzonitrile], the half-maximal inhibitory concentration (IC50) with pERK in MKN1 cells (setting [2]) is 457 nM. The inhibition constant Ki in assay [1] stood at 12.5 nM.

Turning to `Cc1nnc(N[C@H](C)c2cccc(C(C)(F)F)c2F)c2cc(-c3ccc(=O)n(C)c3)c(F)cc12` [Example P-173, (R)-5-(4-((1-(3-(1,1-difluoroethyl)-2-fluorophenyl)ethyl)amino)-7-fluoro-1-methylphthalazin-6-yl)-1-methylpyridin-2(1H)-one], the half-maximal inhibitory concentration (IC50) in the assay on pERK in MKN1 cells (setting [2]) came to 573 nM. Moreover, in assay [1], the Ki came out at 8.31 nM.

As for `Cc1c(C#N)cccc1[C@@H](C)Nc1nnc(C)c2cnc(-c3ccc(=O)n(C)c3)cc12` [Example P-174, (R)-2-methyl-3-(1-((4-methyl-7-(1-methyl-6-oxo-1,6-dihydropyridin-3-yl)pyrido[3,4-d]pyridazin-1-yl)amino)ethyl)benzonitrile], in the assay with pERK in MKN1 cells (setting [2]), the IC50 was 1330 nM. The inhibition constant (Ki) in assay [1] was 43.5 nM.

As to `Cc1nnc(N[C@H](C)c2cccc(C(C)(F)F)c2F)c2cc(-c3ccc(=O)n(C)c3)ncc12` [Example P-175, (R)-5-(1-((1-(3-(1,1-difluoroethyl)-2-fluorophenyl)ethyl)amino)-4-methylpyrido[3,4-d]pyridazin-7-yl)-1-methylpyridin-2(1H)-one], the IC50 with pERK in MKN1 cells (setting [2]) came to 415 nM. Also, the inhibition constant (Ki) in assay [1] was 15.4 nM.

Consider `Cc1c(C#N)cccc1[C@@H](C)Nc1nnc(N2CC[C@H](N(C)C)C2)c2cnc(N3C[C@H]4C[C@@H]3CO4)cc12` [Example P-176, 3-((R)-1-((7-((1R,4R)-2-oxa-5-azabicyclo[2.2.1]heptan-5-yl)-4-((S)-3-(dimethylamino)pyrrolidin-1-yl)pyrido[3,4-d]pyridazin-1-yl)amino)ethyl)-2-methylbenzonitrile], for which the IC50 with pERK in MKN1 cells (setting [2]) came out at 120 nM. Besides, the Ki in assay [1] turned out to be 0.708 nM.

For `Cc1c(C#N)cccc1[C@@H](C)Nc1nnc(N2CC(N)C2)c2cnc(N3C[C@H]4C[C@@H]3CO4)cc12` [Example P-177, 3-((R)-1-((4-(3-aminoazetidin-1-yl)-7-((1R,4R)-2-oxa-5-azabicyclo[2.2.1]heptan-5-yl)pyrido[3,4-d]pyridazin-1-yl)amino)ethyl)-2-methylbenzonitrile], the concentration for half-maximal inhibition (IC50) in the assay on pERK in MKN1 cells (setting [2]) came to 451 nM. In addition, the Ki in assay [1] is 0.541 nM.

For the molecule `Cc1c(C#N)cccc1[C@@H](C)Nc1nnc(C)c2cc(F)c(N(C)[C@@H]3CCN(C)C3)cc12` [Example P-178, 3-((R)-1-((6-fluoro-4-methyl-7-(methyl((R)-1-methylpyrrolidin-3-yl)amino)phthalazin-1-yl)amino)ethyl)-2-methylbenzonitrile], the half-maximal inhibitory concentration (IC50) in the assay with pERK in MKN1 cells (setting [2]) was 54.7 nM. Besides, in assay [1], the inhibitory constant (Ki) amounted to 1.1 nM.

With `Cc1c(C#N)cccc1[C@@H](C)Nc1nnc(C)c2cc(F)c(N(C)[C@H]3CCN(C)C3)cc12` [Example P-179, 3-((R)-1-((6-fluoro-4-methyl-7-(methyl((S)-1-methylpyrrolidin-3-yl)amino)phthalazin-1-yl)amino)ethyl)-2-methylbenzonitrile], in the assay with pERK in MKN1 cells (setting [2]), the IC50 is 84.7 nM. In assay [1], the inhibitory constant (Ki) worked out at 0.714 nM.

Turning to `Cc1c(C#N)cccc1[C@@H](C)Nc1nnc(N2CC(N(C)C)C2)c2cnc(N3C[C@H]4C[C@@H]3CO4)cc12` [Example P-180, 3-((R)-1-((7-((1R,4R)-2-oxa-5-azabicyclo[2.2.1]heptan-5-yl)-4-(3-(dimethylamino)azetidin-1-yl)pyrido[3,4-d]pyridazin-1-yl)amino)ethyl)-2-methylbenzonitrile], in the assay with pERK in MKN1 cells (setting [2]), the 50% inhibitory concentration (IC50) stood at 53.4 nM. Besides, in assay [1], the Ki was 0.491 nM.

`Cc1nnc(N[C@H](C)c2cccc(C(F)(F)F)c2F)c2cc(N(C)[C@H]3CCN(C)C3)c(F)cc12` [Example P-181, 6-fluoro-N^1-((R)-1-(2-fluoro-3-(trifluoromethyl)phenyl)ethyl)-N7,4-dimethyl-N^7-((S)-1-methylpyrrolidin-3-yl)phthalazine-1,7-diamine]: the 50% inhibitory concentration (IC50) with pERK in MKN1 cells (setting [2]) is 223 nM. The Ki in assay [1] is 0.711 nM.

As to `Cc1nnc(N[C@H](C)c2cccc3c2OCC3(F)F)c2cc(N3C[C@@H]4C[C@H]3CN4C)ncc12` [Example P-184, N-((R)-1-(3,3-difluoro-2,3-dihydrobenzofuran-7-yl)ethyl)-4-methyl-7-((1S,4S)-5-methyl-2,5-diazabicyclo[2.2.1]heptan-2-yl)pyrido[3,4-d]pyridazin-1-amine formic acid salt], in the assay on pERK in MKN1 cells (setting [3]), the half-inhibitory concentration (IC50) is 65.7 nM. Also, in assay [1], the Ki is 1.02 nM.

Consider `Cc1c(C#N)cccc1[C@@H](C)Nc1nnc(C)c2cc(C(F)F)c(N3CCN(C)CC3)cc12` [Example P-185, (R)-3-(1-((6-(difluoromethyl)-4-methyl-7-(4-methylpiperazin-1-yl)phthalazin-1-yl)amino)ethyl)-2-methylbenzonitrile formic acid], for which the IC50 with pERK in MKN1 cells (setting [3]) stood at 118 nM. In addition, the Ki in assay [1] is 4.95 nM.

For `Cc1c(C#N)cccc1[C@@H](C)Nc1nnc(C)c2cc(CF)c(N3CCN(C)CC3)cc12` [Example P-186, (R)-3-(1-((6-(fluoromethyl)-4-methyl-7-(4-methylpiperazin-1-yl)phthalazin-1-yl)amino)ethyl)-2-methylbenzonitrile], the IC50 with pERK in MKN1 cells (setting [2]) was found to be 181 nM. Also, in assay [1], the inhibitory constant (Ki) was 1.27 nM.

Consider `Cc1c(C#N)cccc1[C@@H](C)Nc1nnc(C)c2c(C)nc(N3CCOCC3)cc12` [Example P-188, (R)-3-(1-((4,5-dimethyl-7-morpholinopyrido[3,4-d]pyridazin-1-yl)amino)ethyl)-2-methylbenzonitrile], for which, in the assay on pERK in MKN1 cells (setting [2]), the IC50 was determined as 49.1 nM. In assay [1], the Ki turned out to be 2.5 nM.

The values are drawn from patent publication US20250059182A1, “SOS1 INHIBITORS” (Mirati Therapeutics, Inc., priority 2021, published 2025).
